According to the supplement of paper PMC10307832:

Tests used:
Test in all cases: relative viability (nuclei count vs DMSO), 5 days (fraction); higher = more cells survive
Selisistat + Vorinostat = compound: C1CC(C2=C(C1)C3=C(N2)C=CC(=C3)Cl)C(=O)N [Selisistat] + O=C(CCCCCCC(=O)Nc1ccccc1)NO [Vorinostat] (partner 1 µM)
Summary of the method: (§1)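 Lung cancer cell lines, seeded in 1536-well plates, were treated the following day by pin tool with a single drug or with five library-drug doses (not always all listed) in √10 steps on top of a fixed anchor-drug dose. Cells were fixed and nuclei stained in one step after 5 days, and nuclei were counted. Relative viability is the nuclei count for treated wells divided by that for vehicle wells, reported as medians of duplicate plates.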

Serdemetan + Dasatinib = compound: c1ccc2c(CCNc3ccc(Nc4ccncc4)cc3)c[nH]c2c1 [Serdemetan] + Cc1nc(Nc2ncc(C(=O)Nc3c(C)cccc3Cl)s2)cc(N2CCN(CCO)CC2)n1 [Dasatinib] (partner 0.075 µM)
Summary of the method: as §1

Serdemetan + Decitabine = compound: c1ccc2c(CCNc3ccc(Nc4ccncc4)cc3)c[nH]c2c1 [Serdemetan] + Nc1ncn([C@H]2C[C@H](O)[C@@H](CO)O2)c(=O)n1 [Decitabine] (partner 2 µM)
Summary of the method: as §1

Serdemetan + Vorinostat = compound: c1ccc2c(CCNc3ccc(Nc4ccncc4)cc3)c[nH]c2c1 [Serdemetan] + O=C(CCCCCCC(=O)Nc1ccccc1)NO [Vorinostat] (partner 1 µM)
Summary of the method: as §1

Cell Line	relative viability (Selisistat + Vorinostat; first compound 0.4 µM)	relative viability (Selisistat + Vorinostat; first compound 1.265 µM)	relative viability (Selisistat + Vorinostat; first compound 4 µM)	relative viability (Selisistat + Vorinostat; first compound 12.65 µM)	relative viability (Selisistat + Vorinostat; first compound 40 µM)	relative viability (Serdemetan + Dasatinib; first compound 0.04 µM)	relative viability (Serdemetan + Dasatinib; first compound 0.1265 µM)	relative viability (Serdemetan + Dasatinib; first compound 0.4 µM)	relative viability (Serdemetan + Dasatinib; first compound 1.265 µM)	relative viability (Serdemetan + Dasatinib; first compound 4 µM)	relative viability (Serdemetan + Decitabine; first compound 0.04 µM)	relative viability (Serdemetan + Decitabine; first compound 0.1265 µM)	relative viability (Serdemetan + Decitabine; first compound 1.265 µM)	relative viability (Serdemetan + Decitabine; first compound 4 µM)	relative viability (Serdemetan + Vorinostat; first compound 0.04 µM)	relative viability (Serdemetan + Vorinostat; first compound 0.1265 µM)	relative viability (Serdemetan + Vorinostat; first compound 1.265 µM)	relative viability (Serdemetan + Vorinostat; first compound 4 µM)	relative viability (Serdemetan + Decitabine; first compound 0.4 µM)	relative viability (Serdemetan + Vorinostat; first compound 0.4 µM)
PC-14	0.914	0.764	0.843	0.776	0.931	0.262	0.247	0.115	0.308	0.147	0.186	0.202	0.125	0.138	0.718	0.811	0.645	0.266		
NCI-H1437	0.875	0.837	0.886	0.876	0.74	0.347	0.352	0.388	0.274	0.289	0.511	0.5	0.492	0.427	0.771	0.786	0.623	0.616	0.582	0.79
NCI-H460	0.691	0.772	0.808	0.723	0.807	0.616	0.545	0.47	0.258	0.141	0.374	0.385	0.194	0.102	0.595	0.435	0.0775	0.0723	0.314	0.296
NCI-H1666	1.09	1.13	1.11	1.13	1.17	0.797	0.736	0.829	0.597	0.663	0.798	0.657	0.645	0.697	0.896	0.935		0.713	0.652	0.907
NCI-H1651	0.625	0.672	0.552	0.638	0.622	0.296	0.319	0.281	0.237	0.186	0.486	0.414	0.275	0.289	0.573	0.386	0.492	0.336	0.497	0.509
NCI-H1755	0.831	0.903	0.975	0.766	0.928	0.414	0.446	0.404	0.24	0.306	0.697	0.73	0.488	0.434	0.648	0.811	0.54	0.459	0.668	0.741
NCI-H661	0.824	0.77	0.829	0.727	0.66	0.856	0.916	0.849		0.564	0.543	0.533	0.473	0.469	0.77	0.793	0.712	0.752	0.533	0.738
HARA	0.436	0.552	0.529	0.756	0.85	0.336	0.28	0.235	0.185	0.178	0.542	0.47	0.344	0.379	0.527	0.565	0.483	0.274	0.409	0.492
NCI-H596	0.698	0.609	0.521	0.75	0.773	0.677	0.637	0.645	0.565	0.522	0.965	0.94	0.636	0.588	0.568	0.543	0.428	0.425	0.772	0.578
NCI-H23	0.647	0.597		0.663	0.802	0.734	0.877	0.794	0.548	0.914	0.303	0.308		0.302	0.664	0.695		0.517	0.223	0.643
LCLC-97TM1	0.646	0.72		0.597	0.75	0.824	0.971	0.823		0.748	0.232	0.213	0.175	0.165	0.803	0.713	0.433	0.398	0.239	0.667
EPLC-272H	0.453	0.729	0.52	0.529	0.693	0.42	0.397	0.389	0.29	0.418	0.384	0.362	0.338	0.256	0.396	0.654	0.304	0.218	0.341	0.532
NCI-H522	0.908	0.868	0.835	0.919	1.13	0.807	0.844	0.911		0.946	0.677	0.775	0.691	0.613	0.982	0.955	0.831	0.799	0.68	0.923
NCI-H1915	0.494	0.538	0.661	0.538	0.641	0.3	0.316	0.314	0.287	0.302	0.266	0.259	0.231	0.239	0.538	0.535	0.508	0.509	0.253	0.513
NCI-H2405	1.07	1.19		0.975	0.927	0.173	0.217	0.21	0.209	0.133	0.707	0.766	0.674	0.625	0.968	0.973	0.788	0.846	0.756	0.91
NCI-H322M	0.857	0.921		0.893	1.02	0.266	0.24	0.248	0.214	0.272	0.667	0.675	0.534	0.647	0.798	0.906	0.806	0.854	0.682	0.857
NCI-H2170	0.868	0.8	0.845	0.917	0.964	0.437	0.612	0.474	0.513	0.569	0.419	0.497	0.417	0.361	0.828	0.834	0.733	0.876	0.437	0.806
